Structures can show the parent of a compound that is named as a salt.
These compounds were tested against T1, PPARδ (Homo sapiens, UniProt Q03181) (assay: Transactivation assay (PPARδ GAL4 assay) in transiently transfected HEK293 cells). Conditions: luciferase reporter, Table 1.
T1 construct: fused to amino acids 147-441 of PPARδ downstream of CMV promoter; expressed in transfected cells; host or cells: HEK293 cells, transiently transfected with pFACMV-PPARδ using Fugene
T1 sequence (Q03181 147-441): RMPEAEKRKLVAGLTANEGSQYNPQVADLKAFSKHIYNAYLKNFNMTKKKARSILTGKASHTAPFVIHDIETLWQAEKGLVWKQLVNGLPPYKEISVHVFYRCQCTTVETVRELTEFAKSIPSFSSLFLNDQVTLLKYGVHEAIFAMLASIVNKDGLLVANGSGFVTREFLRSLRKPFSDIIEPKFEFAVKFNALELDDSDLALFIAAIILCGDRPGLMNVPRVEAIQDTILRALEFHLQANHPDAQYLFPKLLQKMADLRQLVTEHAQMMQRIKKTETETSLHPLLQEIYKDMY
Format: cell-based
Description: Compounds were screened for their functional potency in transiently transfected HEK293 cells for their ability to activate PPAR subtypes. Cells were cultured in DMEM (Invitrogen) supplemented with 10% foetal calf serum, glutamine, penicillin and streptomycin and plated at 10 000 cells/well of a 96-well solid white plate and incubated at 37° C./5% CO2 for 24 hours. Media was removed and the cells washed with PBS. Cells were then transiently transfected using Fugene (Roche) with 50 ng pFACMV-PPARδ (plasmid encoding amino acids 1-147 of the GAL4 DNA binding domain, fused to amino acids 147-441 of PPARδ downstream of CMV promoter) and 250 ng pFR-Luc (reporter plasmid containing 5×GAL4 response elements upstream of a luciferase gene), using a ratio of 3:1 Fugene:DNA. 100 μl of this transfection mixture in DMEM (without foetal calf serum) was added to each well, and the incubation continued for a further 24 hours. The cells are then again washed with PBS prior to the addition of 100 μl reduced serum medium (OptiMEM; Invitrogen). Compounds were added (10 μl in 2% DMSO in OptiMEM) to achieve final concentrations between 0-30 μM. The cells were then returned to the incubator for a further 24 hours. 100 μl of luciferase reagent (Bright Glo, Promega) was added directly to each well, and the luminescence determined using a suitable luminometer.
To measure the selectivity of compounds, their ability to transactivate GAL4 fusions of PPARα LBD and PPARγ LBD was determined. The activity of compounds was expressed as a percentage relative to control compounds: PPARγ rosiglitazone (BRL 49653), PPARδ GW501516 (11) or PPARα KCL1999000269 (12). EC50 values were calculated by fitting of the data to a sigmoidal dose response curve.

COc1ccc(C(=O)c2cc(C)sc2NC(=O)CSCC(=O)O)cc1 [Example 61, {[3-(4-Methoxy-benzoyl)-5-methyl-thiophen-2-ylcarbamoyl]-methylsulfanyl}-acetic acid] and COc1ccc(C(=O)c2cc(Cl)sc2NC(=O)CSCC(=O)O)cc1 [Example 66, {[5-Chloro-3-(4-methoxy-benzoyl)-thiophen-2-ylcarbamoyl]-methylsulfanyl}-acetic acid] fall in the same range of EC50: 1 to 30 µM for the first, 1 to 30 µM for the second.

COc1ccc(C(=O)c2cc(C(C)C)sc2NC(=O)CSCC(=O)O)cc1 [Example 62, {[5-Isopropyl-3-(4-methoxy-benzoyl)-thiophen-2-ylcarbamoyl]-methylsulfanyl}-acetic acid] and CCCc1cc(C(=O)c2ccc(OC)cc2)c(NC(=O)CSCC(=O)O)s1 [Example 63, {[3-(4-Methoxybenzoyl)-5-propyl-thiophen-2-ylcarbamoyl]-methylsulfanyl}-acetic acid] fall in the same range of EC50: 1 to 30 µM for the first, 1 to 30 µM for the second.

First: O=C(O)CSCC(=O)Nc1sc(C2CC2)cc1C(=O)c1ccc(F)cc1 [Example 64, {[5-Cyclopropyl-3-(4-fluoro-benzoyl)-thiophen-2-ylcarbamoyl]-methylsulfanyl}-acetic acid]
Second: O=C(O)CSCC(=O)Nc1sc(Cl)cc1C(=O)c1ccc(OC(F)(F)F)cc1 [Example 67, {[5-Chloro-3-(4-trifluoromethoxy-benzoyl)-thiophen-2-ylcarbamoyl]-methylsulfanyl}-acetic acid]
The EC50 of the first is higher: 1 to 30 µM for the first, under 0.1 µM for the second. The second is the more potent here.

COc1ccc(C(=O)c2cc(Cl)sc2NC(=O)CSCC(=O)O)cn1 [Example 65, {[5-Chloro-3-(6-methoxy-pyridine-3-carbonyl)-thiophen-2-ylcarbamoyl]-methylsulfanyl}-acetic acid] and COc1ccc(C(=O)c2ccsc2NC(=O)CSCC(=O)O)cc1 [Example 68, {[3-(4-Methoxy-benzoyl)-thiophen-2-ylcarbamoyl]-methylsulfanyl}-acetic acid] fall in the same range of EC50: 1 to 30 µM for the first, 1 to 30 µM for the second.

First: CCc1cc(C(=O)c2ccc(OC)cc2)c(NC(=O)CCCCC(=O)O)s1 [Example 69, 5-[5-Ethyl-3-(4-methoxy-benzoyl)-thiophen-2-ylcarbamoyl]-pentanoic acid]
Second: CCc1cc(C(=O)c2ccc(OC)cc2)c(NC(=O)CCCSCC(=O)O)s1 [Example 71, {3-[5-Ethyl-3-(4-methoxy-benzoyl)-thiophen-2-ylcarbamoyl]-propylsulfanyl}-acetic acid]
The EC50 of the first is higher: 1 to 30 µM for the first, 0.1 to 1 µM for the second. The second is the more potent here.

First: CCc1cc(C(=O)c2ccc(OC)cc2)c(NC(=O)C(C)SCC(=O)O)s1 (stereo not shown) [Example 72, {1-[5-Ethyl-3-(4-methoxy-benzoyl)-thiophen-2-ylcarbamoyl]-ethylsulfanyl}-acetic acid]
Second: CCc1cc(C(=O)c2ccc(OC)cc2)c(NC(=O)CNCC(=O)O)s1 [Example 74, ({[5-Ethyl-3-(4-methoxy-benzoyl)-thiophen-2-ylcarbamoyl]-methyl}-amino)-acetic acid hydrochloride]
The EC50 of the first is lower: 0.1 to 1 µM for the first, 1 to 30 µM for the second. The first is the more potent here.

Compared with CCc1cc(C(=O)c2ccc(OC)cc2)c(NC(=O)CN(C)CC(=O)O)s1 [Example 73, ({[5-Ethyl-3-(4-methoxy-benzoyl)-thiophen-2-ylcarbamoyl]-methyl}-methyl-amino)-acetic acid hydrochloride], CCc1cc(C(=O)c2ccc(Cl)cc2)c(NC(=O)C(C)N(C)CC(=O)O)s1 (stereo not shown) [Example 87, ({1-[3-(4-Chloro-benzoyl)-5-ethyl-thiophen-2-ylcarbamoyl]-ethyl}-methyl-amino)-acetic acid] is lower in EC50: 1 to 30 µM for the first, 0.1 to 1 µM for the second.

First: CCc1cc(C(=O)c2ccc(OC(F)(F)F)cc2)c(NC(=O)CNC(C)(C)C(=O)O)s1 [Example 76, 2-({[5-Ethyl-3-(4-trifluoromethoxy-benzoyl)-thiophen-2-ylcarbamoyl]-methyl}-amino)-2-methyl-propionic acid]
Second: CC(C)(NCC(=O)Nc1sc(Cl)cc1C(=O)c1ccc(OC(F)(F)F)cc1)C(=O)O [Example 86, 2-({[5-Chloro-3-(4-trifluoromethoxy-benzoyl)-thiophen-2-ylcarbamoyl]-methyl}-amino)-2-methyl-propionic acid]
The EC50 of the first is lower: under 0.1 µM for the first, 0.1 to 1 µM for the second.

CCc1cc(C(=O)c2ccc(OC(F)(F)F)cc2)c(NC(=O)CNC(CC(C)C)C(=O)O)s1 (stereo not shown) [Example 77, 2-({[5-Ethyl-3-(4-trifluoromethoxy-benzoyl)-thiophen-2-ylcarbamoyl]-methyl}-amino)-4-methyl-pentanoic acid] and CCc1cc(C(=O)c2ccc(OC(F)(F)F)cc2)c(NC(=O)CNC(CC)C(=O)O)s1 (stereo not shown) [Example 80, 2-({[5-Ethyl-3-(4-trifluoromethoxy-benzoyl)-thiophen-2-ylcarbamoyl]-methyl}-amino)-butyric acid] cannot be ordered by EC50: under 0.1 µM for the first, under 0.1 µM for the second.

Compared with CCc1cc(C(=O)c2ccc(OC(F)(F)F)cc2)c(NC(=O)CN[C@@H](C(=O)O)C(C)C)s1 [Example 78, (R)-2-({[5-Ethyl-3-(4-trifluoromethoxy-benzoyl)-thiophen-2-ylcarbamoyl]-methyl}-amino)-3-methyl-butyric acid], CCc1cc(C(=O)c2ccc(OC(F)(F)F)cc2)c(NC(=O)CN[C@H](C(=O)O)C(C)C)s1 [Example 79, (S)-2-({[5-Ethyl-3-(4-trifluoromethoxy-benzoyl)-thiophen-2-ylcarbamoyl]-methyl}-amino)-3-methyl-butyric acid] is lower in EC50: 1 to 30 µM for the first, under 0.1 µM for the second. The second is the more potent here.

Compared with CCc1cc(C(=O)c2ccc(OC(F)(F)F)cc2)c(NC(=O)CNCC(=O)O)s1 [Example 81, ({[5-Ethyl-3-(4-trifluoromethoxy-benzoyl)-thiophen-2-ylcarbamoyl]-methyl}-amino)-acetic acid], CCc1cc(C(=O)c2ccc(OC(F)(F)F)cc2)c(NC(=O)CNC2(C(=O)O)CC2)s1 [Example 82, 1-({[5-Ethyl-3-(4-trifluoromethoxy-benzoyl)-thiophen-2-ylcarbamoyl]-methyl}-amino)-cyclopropanecarboxylic acid] is higher in EC50: 0.1 to 1 µM for the first, 1 to 30 µM for the second.

First: CCc1cc(C(=O)c2ccc(-c3ccc(F)cc3)cc2)c(NC(=O)CNC(C)(C)C(=O)O)s1 [Example 83, 2-({[5-Ethyl-3-(4′-fluoro-biphenyl-4-carbonyl)-thiophen-2-ylcarbamoyl]-methyl}-amino)-2-methyl-propionic acid]
Second: CCc1cc(C(=O)c2cccc(-c3ccc(F)cc3)c2)c(NC(=O)CNC(C)(C)C(=O)O)s1 [Example 85, 2-({[5-Ethyl-3-(4′-fluoro-biphenyl-3-carbonyl)-thiophen-2-ylcarbamoyl]-methyl}-amino)-2-methyl-propionic acid]
The EC50 of the first is lower: under 0.1 µM for the first, 0.1 to 1 µM for the second. The first is the more potent here.

CCc1cc(C(=O)c2cccc(-c3ccc(OC(F)(F)F)cc3)c2)c(NC(=O)CNC(C)(C)C(=O)O)s1 [Example 84, 2-({[5-Ethyl-3-(4′-trifluoromethoxy-biphenyl-3-carbonyl)-thiophen-2-ylcarbamoyl]-methyl}-amino)-2-methyl-propionic acid] and CCc1cc(C(=O)c2ccc(OC(F)(F)F)cc2)c(NC(=O)CSc2ccc(OCC(=O)O)cc2)s1 [Example 93] fall in the same range of EC50: 0.1 to 1 µM for the first, 0.1 to 1 µM for the second.

CCc1cc(C(=O)c2ccc(OC)cc2)c(NC(=O)CSc2cccc(OCC(=O)O)c2)s1 [Example 88, (3-{[5-Ethyl-3-(4-methoxy-benzoyl)-thiophen-2-ylcarbamoyl]-methylsulfanyl}-phenoxy)-acetic acid] and CCc1cc(C(=O)c2ccc(OC)cc2)c(NC(=O)CSc2ccc(OCC(=O)O)cc2)s1 [Example 89, (4-{[5-Ethyl-3-(4-methoxy-benzoyl)-thiophen-2-ylcarbamoyl]-methylsulfanyl}-phenoxy)-acetic acid] fall in the same range of EC50: 1 to 30 µM for the first, 1 to 30 µM for the second.

CCc1cc(C(=O)c2ccc(OC)cc2)c(NC(=O)CSc2cccc(C(=O)O)c2)s1 [Example 90, 3-{[5-Ethyl-3-(4-methoxy-benzoyl)-thiophen-2-ylcarbamoyl]-methylsulfanyl}-benzoic acid] and CCc1cc(C(=O)c2ccc(OC)cc2)c(NC(=O)CSc2ccc(OCC(=O)O)c(C)c2)s1 [Example 91, (4-{[5-Ethyl-3-(4-methoxy-benzoyl)-thiophen-2-ylcarbamoyl]-methylsulfanyl}-2-methyl-phenoxy)-acetic acid] fall in the same range of EC50: 1 to 30 µM for the first, 1 to 30 µM for the second.

CCc1cc(C(=O)c2ccc(OC)cc2)c(NC(=O)CSc2ccc(OC(C)(C)C(=O)O)cc2)s1 [Example 92, 2-(4-{[5-Ethyl-3-(4-methoxy-benzoyl)-thiophen-2-ylcarbamoyl]-methylsulfanyl}-phenoxy)-2-methyl-propionic acid] showed an EC50 of 0.1 to 1 µM.

Source: patent US20100063065A1 (Inpharmatica Limited, priority 2005, published 2010)
